31 compounds from patent publication US9340549B2, “Oxazolidinone compounds and derivatives thereof” (priority 2012, dated 2016) can be followed below.

The target in the test is 6×HIS-tankyrase 1 (1091-1325) (Homo sapiens (Human), UniProt O95271). The experiment in a line: biochemical. The format is biochemical. The settings on record: 400 nM NAD, 60 minutes at room temperature, read-out: TNKS1 IP IC50.

The structures appear in SMILES notation. Read-outs that look alike come from different tables or passages of the source.

6×HIS-tankyrase 1 (1091-1325), sequence (O95271 1091-1325): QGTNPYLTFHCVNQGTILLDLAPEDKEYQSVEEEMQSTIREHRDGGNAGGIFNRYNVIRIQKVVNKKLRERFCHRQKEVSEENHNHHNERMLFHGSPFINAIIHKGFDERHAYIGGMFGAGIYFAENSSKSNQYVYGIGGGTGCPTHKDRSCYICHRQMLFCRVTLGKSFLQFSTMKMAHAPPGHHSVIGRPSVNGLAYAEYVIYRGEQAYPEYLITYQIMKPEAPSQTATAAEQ

`CC1(C)OC(=O)N([C@H]2CC[C@H](NC(=O)c3cscn3)CC2)[C@H]1c1ccccc1` [Example 168, N-((1S,4r)-4-((S)-5,5-dimethyl-2-oxo-4-phenyloxazolidin-3-yl)cyclohexyl)thiazole-4-carboxamide]: the IC50 ([…] enzyme) was more than 46300 nM.
Same read-out and setting: next, `CC1(C)OC(=O)N([C@H]2CC[C@H](NC(=O)c3ccnc4[nH]ccc34)CC2)[C@H]1c1ccccc1` [Example 152, N-((1S,4r)-4-((S)-5,5-dimethyl-2-oxo-4-phenyloxazolidin-3-yl)cyclohexyl)-1H-pyrrolo[2,3-b]pyridine-4-carboxamide]: 228 nM; `C[C@@H]1OC(=O)N([C@H]2CC[C@H](n3c(=O)[nH]c4cc(C#N)ccc43)CC2)C1c1ccccc1` (stereo partly drawn) [Example 179, 1-((1R,4r)-4-((4R,5S)-5-methyl-2-oxo-4-phenyloxazolidin-3-yl)cyclohexyl)-2-oxo-2,3-dihydro-1H-benzo[d]imidazole-5-carbonitrile]: 129 nM.
For the compound `CC1(C)OC(=O)N([C@H]2CC[C@H](NC(=O)c3coc(-c4ccccc4)n3)CC2)[C@H]1c1ccccc1` [Example 164, N-((1S,4r)-4-((S)-5,5-dimethyl-2-oxo-4-phenyloxazolidin-3-yl)cyclohexyl)-2-phenyloxazole-4-carboxamide], the IC50 ([…] enzyme) was 51.9 nM.
Still for that read-out and setting: next, `CC1(C)OC(=O)N([C@H]2CC[C@H](NC(=O)c3nccs3)CC2)[C@H]1c1ccccc1` [Example 160, N-((1S,4r)-4-((S)-5,5-dimethyl-2-oxo-4-phenyloxazolidin-3-yl)cyclohexyl)thiazole-2-carboxamide]: 1460 nM.
On to `Cc1ccc([C@H]2CC[C@@H](N3C(=O)OC(C)(C)[C@@H]3c3ccccc3)CC2)cn1` [Example 134, (S)-5,5-dimethyl-3-((1 s,4r)-4-(6-methylpyridin-3-yl)cyclohexyl)-4-phenyloxazolidin-2-one], for which, under “0.25 nM enzyme”, the concentration for half-maximal inhibition (IC50) is more than 46300 nM.
Take `CC1(C)OC(=O)N([C@H]2CC[C@H](NC(=O)c3ccc4cc[nH]c4n3)CC2)[C@H]1c1ccccc1` [Example 147, N-((1S,4r)-4-((S)-5,5-dimethyl-2-oxo-4-phenyloxazolidin-3-yl)cyclohexyl)-1H-pyrrolo[2,3-b]pyridine-6-carboxamide]: the concentration for half-maximal inhibition (IC50) ([…] enzyme) turned out to be 26.4 nM.
On the same count and under the same terms, next, `CC1(C)OC(=O)N(C2CC(c3nnc(-c4ccccc4)o3)C2)[C@@H]1c1ccccc1` (mixture of isomers) [Example 175, Mixture of (R)-5,5-dimethyl-4-phenyl-3-((1r,3R)-3-(5-phenyl-1,3,4-oxadiazol-2-yl)cyclobutyl)oxazolidin-2-one compound and (S)-5,5-dimethyl-4-phenyl-3-((1r,3S)-3-(5-phenyl-1,3,4-oxadiazol-2-yl)cyclobutyl)oxazolidin-2-one (1:1)]: 1470 nM; `CC1(C)OC(=O)N([C@H]2CC[C@H](NC(=O)c3ccccc3)CC2)[C@H]1c1ccccc1` [Example 141, N-((1S,4r)-4-((S)-5,5-dimethyl-2-oxo-4-phenyloxazolidin-3-yl)cyclohexyl)benzamide]: 755 nM; `CC1(C)OC(=O)N(C2CC=C(c3cc4ccncc4[nH]c3=O)CC2)[C@H]1c1ccccc1` (stereo partly drawn) [Example 87, (4S)-5,5-dimethyl-3-(4-(2-oxo-1,2-dihydro-1,7-naphthyridin-3-yl)cyclohex-3-en-1-yl)-4-phenyloxazolidin-2-one]: 6.91 nM.
The same measure, in the same setting: next, `Cn1cc(C(=O)N[C@H]2CC[C@H](N3C(=O)OC(C)(C)[C@@H]3c3ccccc3)CC2)c2ccccc21` [Example 143, N-((1R,4r)-4-((R)-5,5-dimethyl-2-oxo-4-phenyloxazolidin-3-yl)cyclohexyl)-1-methyl-1H-indole-3-carboxamide]: 225 nM; `C[C@H]1OC(=O)N([C@H]2CC[C@H](n3c(=O)[nH]c4cc(C#N)ccc43)CC2)[C@H]1c1ccccc1` [Example 178, 1-((1R,4s)-4-((4S,5R)-5-methyl-2-oxo-4-phenyloxazolidin-3-yl)cyclohexyl)-2-oxo-2,3-dihydro-1H-benzo[d]imidazole-5-carbonitrile]: 0.375 nM.
On to `CC1(C)OC(=O)N([C@H]2CC[C@@H](c3cnc4[nH]ccc4c3)CC2)[C@H]1c1ccccc1` [Example 136, (S)-3-((1s,4r)-4-(1H-pyrrolo[2,3-b]pyridin-5-yl)cyclohexyl)-5,5-dimethyl-4-phenyloxazolidin-2-one], for which, for the setting “0.25 nM enzyme”, the IC50 worked out at 5.17 nM.
For `CC1(C)OC(=O)N([C@H]2CC[C@H](NC(=O)c3cccc4[nH]ncc34)CC2)[C@H]1c1ccccc1` [Example 153, N-((1S,4r)-4-((S)-5,5-dimethyl-2-oxo-4-phenyloxazolidin-3-yl)cyclohexyl)-1H-indazole-4-carboxamide], the IC50 ([…] enzyme) is 848 nM.
The same measure, in the same setting: in the case of `CC1(C)OC(=O)N([C@H]2CC[C@H](NC(=O)c3ccc[nH]3)CC2)[C@H]1c1ccccc1` [Example 158, N-((1S,4r)-4-((S)-5,5-dimethyl-2-oxo-4-phenyloxazolidin-3-yl)cyclohexyl)-1H-pyrrole-2-carboxamide] it was 142 nM; in that of `CC1(C)OC(=O)N([C@H]2CC[C@H](NC(=O)c3cnn(-c4ccccc4)c3)CC2)[C@H]1c1ccccc1` [Example 161, N-((1S,4r)-4-((S)-5,5-dimethyl-2-oxo-4-phenyloxazolidin-3-yl)cyclohexyl)-1-phenyl-1H-pyrazole-4-carboxamide], 350 nM.
On the same count and under the same terms, next, `CC1(C)OC(=O)N([C@H]2CC[C@H](n3ncc4cc(C#N)ccc43)CC2)[C@H]1c1ccccc1` [Example 181, 1-((1S,4r)-4-((S)-5,5-dimethyl-2-oxo-4-phenyloxazolidin-3-yl)cyclohexyl)-1H-indazole-5-carbonitrile]: 714 nM.
Turning to `Cc1ccc([C@H]2CC[C@H](N3C(=O)OC(C)(C)[C@@H]3c3ccccc3)CC2)cn1` [Example 135, (S)-5,5-dimethyl-3-((1r,4s)-4-(6-methylpyridin-3-yl)cyclohexyl)-4-phenyloxazolidin-2-one], under “0.25 nM enzyme”, the IC50 came out at 1380 nM.
Consider `CC1(C)OC(=O)N([C@H]2CC[C@H](c3cnc4cc[nH]c4c3)CC2)[C@H]1c1ccccc1` [Example 171, (S)-3-((1r,4S)-4-(1H-pyrrolo[3,2-b]pyridin-6-yl)cyclohexyl)-5,5-dimethyl-4-phenyloxazolidin-2-one], for which the IC50 ([…] enzyme) amounted to 19 nM.
With `CC1(C)OC(=O)N([C@H]2C[C@H](c3nnc(-c4ccccc4)o3)C2)[C@H]1c1ccccc1` (single isomer, unassigned) [Example 177], under “0.25 nM enzyme”, the 50% inhibitory concentration (IC50) came to 1020 nM.
Regarding `CC1(C)OC(=O)N([C@H]2CC[C@H](NC(=O)c3cn4ccccc4n3)CC2)[C@@H]1c1ccccc1` [Example 162, N-((1R,4r)-4-((R)-5,5-dimethyl-2-oxo-4-phenyloxazolidin-3-yl)cyclohexyl)imidazo[1,2-a]pyridine-2-carboxamide], under “[…] enzyme”, the IC50 was 101 nM.
As to `Cn1cc2c(C(=O)N[C@H]3CC[C@H](N4C(=O)OC(C)(C)[C@H]4c4ccccc4)CC3)cccc2n1` [Example 144, N-((1R,4r)-4-((R)-5,5-dimethyl-2-oxo-4-phenyloxazolidin-3-yl)cyclohexyl)-2-methyl-2H-indazole-4-carboxamide], the IC50 ([…] enzyme) came to 222 nM.
On the same count and under the same terms, next, `CC1(C)OC(=O)N([C@H]2CC[C@@H](c3cnc4cc[nH]c4c3)CC2)[C@H]1c1ccccc1` [Example 172, (S)-3-((1s,4R)-4-(1H-pyrrolo[3,2-b]pyridin-6-yl)cyclohexyl)-5,5-dimethyl-4-phenyloxazolidin-2-one]: 1250 nM; `CC1(C)OC(=O)N([C@H]2CC[C@H](NC(=O)c3nc4ccccc4[nH]3)CC2)[C@H]1c1ccccc1` [Example 157, N-((1S,4r)-4-((S)-5,5-dimethyl-2-oxo-4-phenyloxazolidin-3-yl)cyclohexyl)-1H-benzo[d]imidazole-2-carboxamide]: 76.8 nM; `CC1(C)OC(=O)N([C@H]2CC[C@H](NC(=O)c3cnc4ccccc4c3)CC2)[C@@H]1c1ccccc1` [Example 155, N-((1R,4r)-4-((R)-5,5-dimethyl-2-oxo-4-phenyloxazolidin-3-yl)cyclohexyl)quinoline-3-carboxamide]: 548 nM.
In the case of `CC1(C)OC(=O)N([C@H]2CC[C@@H](c3cc4ccncc4[nH]c3=O)CC2)[C@H]1c1ccccc1` [Example 138, (S)-5,5-dimethyl-3-((1s,4r)-4-(2-oxo-1,2-dihydro-1,7-naphthyridin-3-yl)cyclohexyl)-4-phenyloxazolidin-2-one], the IC50 (0.25 nM enzyme) came out at 1250 nM.
For `CC1(C)OC(=O)N([C@H]2CC[C@H](NC(=O)c3csc(-c4ccncc4)n3)CC2)[C@H]1c1ccccc1` [Example 167, N-((1S,4r)-4-((S)-5,5-dimethyl-2-oxo-4-phenyloxazolidin-3-yl)cyclohexyl)-2-(pyridin-4-yl)thiazole-4-carboxamide], where the note is “[…] enzyme”, the IC50 is more than 46300 nM.
`CC1(C)OC(=O)N([C@H]2CC[C@H](NC(=O)c3ccc4nccn4c3)CC2)[C@H]1c1ccccc1` [Example 159, N-((1S,4r)-4-((S)-5,5-dimethyl-2-oxo-4-phenyloxazolidin-3-yl)cyclohexyl)imidazo[1,2-a]pyridine-6-carboxamide]: the IC50 ([…] enzyme) came out at 1560 nM.
Same read-out and setting: next, `CC1(C)OC(=O)N(c2ccc(C(=O)Nc3cnccc3O)cc2)[C@H]1c1ccccc1` [Example 21, (S)-4-(5,5-dimethyl-2-oxo-4-phenyloxazolidin-3-yl)-N-(4-hydroxypyridin-3-yl)benzamide]: 1340 nM; `Cn1cncc1C(=O)N[C@H]1CC[C@H](N2C(=O)OC(C)(C)[C@@H]2c2ccccc2)CC1` [Example 151, N-((1S,4r)-4-((S)-5,5-dimethyl-2-oxo-4-phenyloxazolidin-3-yl)cyclohexyl)-1-methyl-1H-imidazole-5-carboxamide]: 16600 nM; `CC1(C)OC(=O)N([C@H]2CC[C@H](NC(=O)c3ccc4scnc4c3)CC2)[C@H]1c1ccccc1` [Example 150, N-((1S,4r)-4-((S)-5,5-dimethyl-2-oxo-4-phenyloxazolidin-3-yl)cyclohexyl)benzo[d]thiazole-5-carboxamide]: 1540 nM.

Usually IC50 stands for the concentration that gives 50% inhibition.
